Measured values reported in patent publication US12011442B2, “Solid-state forms of Abemaciclib, their use and preparation” (MACFARLAN SMITH LIMITED, priority 2018, dated 2024).

Assays:
Assay type in all cases: physicochemical
[1] = Solid-state stability of the crystalline solvate (observation); conditions: desolvates on exposure to air
Experimental: A variable methanol solvate of ABC is produced by dissolving ABC in warm (55° C.) methanol (about 200 mg/mL) and then cooling (−5° C.) to force precipitation of a white powder. The resulting powder is examined by XRPD while still wet (FIG. 1, top pattern). Single crystals are grown by slow evaporation of methanol into an antisolvent (preferably ethyl acetate) or by slowly cooling a saturated solution from 50° C. to 0° C. over the course of several hours, and not exposed to air, to obviate evaporation of the solvate and the collapse of the crystalline lattice. Single crystal X-ray diffraction (SCXRD) data is undertaken at 100° K to improve diffraction quality as well as prevent desolvation. […] The single crystal is determined to be Form I of variable methanol solvate of ABC (FIG. 2) having about 2.5-3 molecules of methanol, preferably about 2.75 molecules of methanol. Form I of variable methanol solvate of ABC is unstable.

[2] = Thermogravimetric analysis (TGA), onset of decomposition; conditions: heating rate 10.0° C./min, nitrogen; FIG. 6
Experimental: Analysis—TGA (Thermo Gravimetric Analysis) TGA measurements are recorded using TA Q500 instrument. The samples are weighed in aluminum pans. TGA investigations are performed at a heating rate of 10.0° C./min over a temperature range of 30-350° C., purging with nitrogen at a flow rate of 60 mL/min.

[3] = Dynamic vapor sorption (DVS) / sorption isotherm

In the case of `CCN1CCN(Cc2ccc(Nc3ncc(F)c(-c4cc(F)c5nc(C)n(C(C)C)c5c4)n3)nc2)CC1`, the “stability of the solid-state form” value [1] is reported as “unstable”.
In the case of `CCN1CCN(Cc2ccc(Nc3ncc(F)c(-c4cc(F)c5nc(C)n(C(C)C)c5c4)n3)nc2)CC1` [Form II anhydrous ABC], the “onset of decomposition (TGA)” value [2] is reported as “about 320 °C”, the “H2O absorbed by weight (DVS)” value ([3]; between 0-90% relative humidity (RH), FIG. 7) is reported as “about 8%” and the “drop in weight during desorption” value ([3]; desorption at 20% RH, consistent with loss of a molecule of water) is reported as “about 4%”. For the same molecule, the “H2O lost in one desorption step (sorption isotherm)” value ([3]; desorption between 30-20% RH, FIG. 8) was 4% and the “transformation from Form II anhydrous ABC to Form III of hydrate of ABC” value ([3]; humidity sorption/desorption) was “reversible”.
